Measured values as given in US20160207930A1 (LEO PHARMA A/S, priority 2013, published 2016).

Key:
[1] = Hepatic intrinsic clearance following incubation in human liver microsomes; type: in vitro ADME; conditions: 0.5 μM test compound, NADPH, 0-30 min, scaled to g liver
Procedure: Hepatic Extraction Ratio from Hepatic Intrinsic Clearance Following Incubation in Human Liver Microsomes
The general procedure consists of an automated incubation system and LC-MS/MS analysis with human liver microsomes. Human liver microsomes are thawed rapidly in a waterbath at 37° C. and kept on ice until use. The human liver microsomes are diluted with 50 mM potassium phosphate buffer pH 7.4 to a protein concentration of 0.55 mg/mL. Test compounds and positive controls (Verapamil and Dextromethorphan, positive controls for CYP3A4 for CYP2D6 isoforms, respectively) are dissolved in methanol (or other appropriate solvent, if necessary) in order to obtain a 5 mM solution which is further diluted to the concentration of 50 μM. The stock solutions are prepared immediately before the test.
5 μL of 50 μM test compounds and controls are added to 445 μL-of the 0.55 mg/mL microsomes solution and the incubation mixture are pre-warmed at 37° C. for 5 minutes. The incubation reactions are initiated by adding 50 μL of pre-warmed NADPH regenerating system to the incubation mixtures. 50 μL-aliquots will be taken from the incubation mixtures at: 0, 3, 6, 9, 15 and 30 minutes and the reactions are stopped by adding 100 μL of ACN containing Rolipram, used as generic Internal Standard (IS). Samples are then diluted with 120 μL of Milli-Q water and centrifuged at 3000 rpm for 10 minutes, prior the LC-MS/MS analysis.
The integrated peak areas for test compounds at the selected time points are divided by the respective peak areas of the IS and the percent of parent remaining is calculated by normalizing the peak area ratio of parent to IS at 0 min. Observed rate constant (kobs) for parent degradation is calculated by determining the slope of the line of the graph of the natural log of percentage parent remaining versus time of incubation. From the rate of depletion (min−1) and volume of the incubation (mL), clearance is estimated. This is scaled for the protein in the incubation relative to that in the intact liver, for all species (mL/min/g liver).
Values for the Human in vitro Clint are expressed as mL/min/g liver.
Assuming a liver weight of 25.7 g/kg and a liver blood flow of 20.7 mL/min/kg, the hepatic extraction ratio, Eh, can be derived from the Human in vitro Clint:
E.g. a Human in vitro Clint of 2.4 mL/min/g liver corresponds to a hepatic extraction ratio of 75%.
Some compounds of the present invention were tested according to example 101.

NK1 Receptor = target: T1, NK1 Receptor (Homo sapiens, UniProt P25103); experiment: NK1 receptor mediated intracellular [Ca2+] mobilization in U251 MG cells using FLIPR; type: cell-based; conditions: antagonism of Substance P (EC80), Fluo-4, read-out: NK1R mediated intracellular [Ca^2+] mobilization IC 50
T1 construct: Measurement of NK1 Receptor Mediated Intracellular [Ca^2+]; Mobilization in U251 MG Cells Using FLIPR; endogenous in cells; host or cells: U251 MG cells
Procedure: Measurement of NK1 Receptor Mediated Intracellular [Ca^2+] Mobilization in U251 MG Cells Using FLIPR
U251 MG cells were seeded into black walled clear-bottom 384-well plates (Greiner Bio-One GmbH, Frickenhausen, Germany) at a density of 15,000 cells/well in 50 μl culture medium and cultured overnight in a 37° C. 5% CO2 incubator. The cells were then loaded with the calcium sensitive dye Fluo-4 (Invitrogen) at 1 μM in buffer, containing 0.04% Pluronic F-127 (Sigma-Aldrich), and 2.5 mM probenecid (Sigma-Aldrich) for 60 min in a humidified atmosphere of 5% CO2. Thereafter, cells were washed three times in washing buffer containing 20 mM HEPES and 2.5 mM probenecid pH 7.3. Serial dilutions of test compounds in assay buffer containing 2% dimethyl sulfoxide (final concentration in the cell plate is 0.5% DMSO) and/or agonist were then automatically pipetted into each test well, and the peak fluorescence intensity was recorded (lex, 488 nm; lem, 540 nm) by the FLIPR instrument (Molecular Devices) for approximately 5 min. To measure antagonist potency, cell plates were first incubated with the test compound and intracellular fluorescence recorded for 5 minutes to check a potential agonist effect of the test compound. Cell plates were quickly removed from the FLIPR instrument and incubated for additional 10 minutes at 37° C. before being moved back to the FLIPR instrument for Substance P (EC80) addition. The response was measured as the peak relative fluorescence change after agonist addition.
Compound relative %-effect was normalized to the maximal response evoked by 100 nM Aprepitant in presence of the EC80 of Substance P and the antagonist potency determined by non-linear regression using GraphPad Prism (version 5) or the four-parameter logistic model in XLfit (IDBS, Guilford, UK) for Microsoft Excel (Microsoft, Redmond, Wash.). The IC50 value is defined as the molar concentration of a test compound that produces a response midway between the fitted top and the fitted bottom. pIC50=−log IC50
Formula is listed as follows:
Fit (% Effect calculated)=(A+((B−A)/(1+((C/X)̂D)))) • A: bottom value • B: top value • C: test compound concentration • X: Relative IC50 • D: Hill slope coefficient
Ref: Sullivan E, Tucker E M, and Dale I L. Measurement of [Ca^2+] using the Fluorometric Imaging Plate Reader (FLIPR). Methods Mol Biol 114:125-133, 1999.
Compounds of the present invention were tested according to example 100.

T1 sequence (P25103 whole entry): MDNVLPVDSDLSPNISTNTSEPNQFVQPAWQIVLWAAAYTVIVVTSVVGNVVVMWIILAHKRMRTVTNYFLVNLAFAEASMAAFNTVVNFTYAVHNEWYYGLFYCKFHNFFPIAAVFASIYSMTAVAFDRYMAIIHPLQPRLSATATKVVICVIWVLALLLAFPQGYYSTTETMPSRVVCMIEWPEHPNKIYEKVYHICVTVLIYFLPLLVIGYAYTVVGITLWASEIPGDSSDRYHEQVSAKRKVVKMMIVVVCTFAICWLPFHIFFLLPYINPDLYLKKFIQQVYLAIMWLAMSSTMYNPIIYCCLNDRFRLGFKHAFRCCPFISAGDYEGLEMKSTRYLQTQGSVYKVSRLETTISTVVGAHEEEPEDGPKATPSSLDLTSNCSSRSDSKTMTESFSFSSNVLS

| Human in vitro Clint [1] [mL/min/g] | IC50 (NK1 Receptor) [nM] | SMILES |
| --- | --- | --- |
| >200 | 49 | CCc1cc([C@@H](C)N(C)C(=O)N2CCN3C(=O)CC[C@H]3[C@@H]2c2ccccc2CC)cc(C(F)(F)F)c1 (single isomer, unassigned) [Compound 71] |
| >200 | 0.26 | CCc1ccccc1[C@H]1[C@@H]2CCC(=O)N2CCN1C(=O)N(C)[C@H](C)c1cc(C(F)(F)F)cc(C(F)(F)F)c1 [Compound 68, N—((R)-1-(3,5-bis(trifluoromethyl)phenyl)ethyl)-1-(2-ethylphenyl)-N-methyl-6-oxohexahydropyrrolo[1,2-a]pyrazine-2(1H)-carboxamide] |
| 67 | 1.23 | Cc1nn(C)cc1[C@H]1[C@@H]2CCC(=O)N2CCN1C(=O)N(C)[C@H](C)c1cc(C(F)(F)F)cc(C(F)(F)F)c1 [Compound 64, (1S,8aS)—N—((R)-1-(3,5-bis(trifluoromethyl)phenyl)ethyl)-1-(1,3-dimethyl-1H-pyrazol-4-yl)-N-methyl-6-oxohexahydropyrrolo[1,2-a]pyrazine-2(1H)-carboxamide] |
| <10 | 0.772 | Cc1ccncc1[C@H]1[C@@H]2CCC(=O)N2CCN1C(=O)N(C)[C@H](C)c1cc(C(F)(F)F)cc(C(F)(F)F)c1 [Compound 45, (1S,8aS)—N—((R)-1-(3,5-bis(trifluoromethyl)phenyl)ethyl)-N-methyl-1-(4-methylpyridin-3-yl)-6-oxo-hexahydropyrrolo[1,2-a]pyrazine-2(1H)-carboxamide] |
| – | 1.15 | C[C@H](c1cc(C(F)(F)F)cc(C(F)(F)F)c1)N(C)C(=O)N1CCN2C(=O)CC[C@H]2[C@@H]1c1ccc(F)cc1Cl (single isomer, unassigned) [Compound 84] |
| – | 1.38 | C[C@H](c1cc(C(F)(F)F)cc(C(F)(F)F)c1)N(C)C(=O)N1CCN2C(=O)CC[C@H]2[C@@H]1c1ccccc1Cl (single isomer, unassigned) [Compound 73] |
| – | 2.97 | Cc1cccnc1[C@H]1[C@@H]2CCC(=O)N2CCN1C(=O)N(C)[C@H](C)c1cc(C(F)(F)F)cc(C(F)(F)F)c1 [Compound 43, (1R,8aS)—N—((R)-1-(3,5-bis(trifluoromethyl)phenyl)ethyl)-N-methyl-1-(3-methylpyridin-2-yl)-6-oxo-hexahydropyrrolo[1,2-a]pyrazine-2(1H)-carboxamide] |
| – | 0.02 | C[C@H](c1cc(C(F)(F)F)cc(C(F)(F)F)c1)N(C)C(=O)N1CCN2C(=O)CC[C@H]2[C@@H]1c1ccccc1Cl (single isomer, unassigned) [Compound 72] |
| – | 0.06 | C[C@H](c1cc(C(F)(F)F)cc(C(F)(F)F)c1)N(C)C(=O)N1CCN2C(=O)CC[C@H]2[C@@H]1c1ccc(F)cc1Cl (single isomer, unassigned) [Compound 83] |
| – | 0.893 | Cc1ncccc1[C@H]1[C@@H]2CCC(=O)N2CCN1C(=O)N(C)[C@H](C)c1cc(C(F)(F)F)cc(C(F)(F)F)c1 [Compound 47, (1S,8aS)—N—((R)-1-(3,5-bis(trifluoromethyl)phenyl)ethyl)-N-methyl-1-(2-methylpyridin-3-yl)-6-oxo-hexahydropyrrolo[1,2-a]pyrazine-2(1H)-carboxamide] |

Further lines, the compound ahead of its results:

| SMILES | Human in vitro Clint [1] [mL/min/g] | IC50 (NK1 Receptor) [nM] |
| --- | --- | --- |
| Cc1cc([C@@H](C)N(C)C(=O)N2CCN3C(=O)CCC3C2c2ccc(C)cc2C)cc(C(F)(F)F)c1 (single isomer, unassigned) [Compound 4] | >200 | 9.26 |
| Cc1cc([C@@H](C)N(C)C(=O)N2CCN3C(=O)CCC3C2c2ccc(C)cc2C)cc(C(F)(F)F)c1 (single isomer, unassigned) [Compound 5] | >200 | 0.437 |
| CCc1cc([C@@H](C)N(C)C(=O)N2CCN3C(=O)CC[C@H]3[C@@H]2c2ccc(O)cc2C)cc(C(F)(F)F)c1 [Compound 28, (1S,8aS)—N—((R)-1-(3-ethyl-5-(trifluoromethyl)phenyl)ethyl)-1-(4-hydroxy-2-methylphenyl)-N-methyl-6-oxohexahydropyrrolo[1,2-a]pyrazine-2(1H)-carboxamide] | >200 | 0.11 |
| COc1ccc([C@H]2[C@@H]3CC(CCO)(CCO)C(=O)N3CCN2C(=O)N(C)[C@H](C)c2cc(C(F)(F)F)cc(C(F)(F)F)c2)c(C)c1 [Compound 29, (1S,8aS)—N—((R)-1-(3,5-bis(trifluoromethyl)phenyl)ethyl)-7,7-bis(2-hydroxyethyl)-1-(4-methoxy-2-methylphenyl)-N-methyl-6-oxohexahydropyrrolo[1,2-a]pyrazine-2(1H)-carboxamide] | >200 | 0.114 |
| Cc1cc([C@@H](C)N(C)C(=O)N2CCN3C(=O)C(CCO)(CCO)CC3C2c2ccc(F)cc2C)cc(C(F)(F)F)c1 (single isomer, unassigned) [Compound 13] | >200 | 0.034 |
| Cc1cc([C@@H](C)N(C)C(=O)N2CCN3C(=O)C(CCO)(CCO)CC3C2c2ccc(C)cc2C)cc(C(F)(F)F)c1 (mixture of isomers) [Compound 8, 1-(2,4-dimethylphenyl)-7,7-bis(2-hydroxyethyl)-N-methyl-N—((R)-1-(3-methyl-5-(trifluoromethyl)phenyl)ethyl)-6-oxo-hexahydropyrrolo[1,2-a]pyrazine-2(1H)-carboxamide] | >200 | 0.096 |
| CCc1cc([C@@H](C)N(C)C(=O)N2CCN3C(=O)C(CCO)(CCO)CC3C2c2ccc(OC)cc2C)cc(C(F)(F)F)c1 (stereo partly drawn) [Compound 16] | >200 | 0.243 |
| CCc1cc([C@@H](C)N(C)C(=O)N2CCN3C(=O)CC[C@H]3[C@@H]2c2cccs2)cc(C(F)(F)F)c1 [Compound 54, (1R,8aS)—N—((R)-1-(3-ethyl-5-(trifluoromethyl)phenyl)ethyl)-N-methyl-6-oxo-1-(thiophen-2-yl)hexahydropyrrolo[1,2-a]pyrazine-2(1H)-carboxamide] | >200 | 0.514 |
| Cc1ccsc1[C@H]1[C@@H]2CCC(=O)N2CCN1C(=O)N(C)[C@H](C)c1cc(C(F)(F)F)cc(C(F)(F)F)c1 [Compound 50] | >200 | 0.08 |
| Cc1n[nH]cc1[C@H]1[C@@H]2CCC(=O)N2CCN1C(=O)N(C)[C@H](C)c1cc(C(F)(F)F)cc(C(F)(F)F)c1 [Compound 60, (1S,8aS)—N—((R)-1-(3,5-bis(trifluoromethyl)phenyl)ethyl)-N-methyl-1-(3-methyl-1H-pyrazol-4-yl)-6-oxohexahydropyrrolo[1,2-a]pyrazine-2(1H)-carboxamide] | – | 31.8 |
